From patent publication US20080009418A1, “Selective Inhibitors” (Alchemia LTD., priority 2004, published 2008)

Columns and labels:
Settings in all cases: compound at 10 μM
Human δ-opioid (DOP) = molecular target: T1, Human δ-opioid (DOP) (Homo sapiens, UniProt P41143); assay: Radioligand binding, human δ-opioid (DOP) membranes, FlashPlate, [3H]-Bremazocine
T1 construct: purchased Perkin Elmer Biosignal
How it was run: (§1)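 Cloned human receptor membranes were coated onto FlashPlate wells and incubated with radioligand and compound (added from a 0.5 mM DMSO daughter plate) for 1 hour at room temperature in the dark. Scintillation counting gave percent inhibition, with DMSO defining total and reference ligand defining non-specific binding.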

Human κ-Opioid (KOP) = molecular target: T2, Human κ-Opioid (KOP) (Homo sapiens, UniProt P41145); assay: Radioligand binding, human κ-opioid (KOP) membranes, filtration, [3H]-Diprenorphine
T2 construct: purchased Perkin Elmer Biosignal
How it was run: (§2)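 Membranes from cloned human receptors were incubated with compound and radioligand for 1 hour at room temperature. Bound ligand was collected on 0.3% PEI-soaked filters, washed with cold 50 mM Tris-HCl pH 7.4, and counted by scintillation. Percent inhibition was computed against DMSO totals and reference-ligand nonspecific wells.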

Human Melanocortin (MC3) = molecular target: T3, Human Melanocortin (MC3) (Homo sapiens, UniProt P41968); assay: Radioligand binding, human melanocortin MC3 membranes, FlashPlate, [125I]-NDP-αMSH
T3 construct: purchased Perkin Elmer Biosignal
How it was run: as §1

Human Melanocortin (MC4) = molecular target: T4, Human Melanocortin (MC4) (Homo sapiens, UniProt P32245); assay: Radioligand binding, human melanocortin MC4 membranes, FlashPlate, [125I]-NDP-αMSH
T4 construct: purchased Perkin Elmer Biosignal
How it was run: as §1

Human melanocortin (MC5) = molecular target: T5, Human melanocortin (MC5) (Homo sapiens, UniProt P33032); assay: Radioligand binding, human melanocortin MC5 membranes, FlashPlate, [125I]-NDP-αMSH
T5 construct: purchased Perkin Elmer Biosignal
How it was run: as §1

[1] = molecular target: T6, Human melanin-concentrating hormone (MCH1) (Homo sapiens, UniProt Q99705); assay: Radioligand binding, human melanin-concentrating hormone MCH1 membranes, FlashPlate, [125I]-S36057
T6 construct: purchased Perkin Elmer Biosignal
How it was run: as §1

Human μ-opioid (MOP) = molecular target: T7, Human μ-opioid (MOP) (Homo sapiens, UniProt P35372); assay: Radioligand binding, human μ-opioid (MOP) membranes, FlashPlate, [3H]-Naloxone
T7 construct: purchased Perkin Elmer Biosignal
How it was run: as §1

Human neurokinin (NK1) = molecular target: T8, Human neurokinin (NK1) (Homo sapiens, UniProt P25103); assay: Radioligand binding, human neurokinin NK1 membranes, filtration, [125I]-Substance P
T8 construct: purchased Perkin Elmer Biosignal
How it was run: as §2

[2] = molecular target: T9, Human neuropeptide Y (NPY-Y1) (Homo sapiens, UniProt P25929); assay: Radioligand binding, human neuropeptide Y NPY-Y1 membranes, FlashPlate, [125I]-PYY
T9 construct: purchased Perkin Elmer Biosignal
T9 sequence (P25929 1-384): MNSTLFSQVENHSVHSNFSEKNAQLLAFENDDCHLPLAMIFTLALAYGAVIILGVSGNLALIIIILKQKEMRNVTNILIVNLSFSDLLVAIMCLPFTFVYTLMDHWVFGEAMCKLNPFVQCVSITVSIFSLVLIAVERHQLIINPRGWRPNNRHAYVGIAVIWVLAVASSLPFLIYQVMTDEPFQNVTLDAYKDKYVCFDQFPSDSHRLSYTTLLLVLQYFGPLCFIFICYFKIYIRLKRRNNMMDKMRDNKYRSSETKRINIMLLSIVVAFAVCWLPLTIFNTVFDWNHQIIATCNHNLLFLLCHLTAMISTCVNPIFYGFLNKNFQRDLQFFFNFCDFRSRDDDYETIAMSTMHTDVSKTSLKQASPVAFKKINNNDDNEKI
How it was run: as §1

Human opioid (ORL1) = molecular target: T10, Human opioid (ORL1) (Homo sapiens, UniProt P41146); assay: Radioligand binding, human opioid ORL1 membranes, FlashPlate, [125I]-Nociceptin
T10 construct: purchased Perkin Elmer Biosignal
How it was run: as §1

Mouse urotensin (mUR2) = molecular target: T11, Mouse urotensin (mUR2) (Mus musculus, UniProt Q8VIH9); assay: Radioligand binding, mouse urotensin mUR2 membranes, FlashPlate, [125I]-Urotensin II
T11 construct: purchased Perkin Elmer Biosignal
T11 sequence (Q8VIH9 1-385): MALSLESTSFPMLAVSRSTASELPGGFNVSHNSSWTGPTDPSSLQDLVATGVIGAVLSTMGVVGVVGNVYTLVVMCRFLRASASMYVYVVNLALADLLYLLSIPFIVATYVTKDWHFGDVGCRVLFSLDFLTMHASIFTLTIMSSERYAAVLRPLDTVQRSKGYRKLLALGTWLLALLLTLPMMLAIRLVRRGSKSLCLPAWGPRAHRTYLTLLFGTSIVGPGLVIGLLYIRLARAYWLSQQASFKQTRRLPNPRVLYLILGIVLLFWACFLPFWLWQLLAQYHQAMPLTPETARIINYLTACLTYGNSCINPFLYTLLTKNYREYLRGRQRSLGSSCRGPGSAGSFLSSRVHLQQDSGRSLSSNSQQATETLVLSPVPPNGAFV
How it was run: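 Cloned mouse urotensin (mUR2) receptor membranes from Perkin Elmer Biosignal were immobilized in FlashPlate microplates using a proprietary coating. Each well got 19.5 μl buffer, then 0.5 μl of DMSO, reference ligand, or compound. Adding 5 μl of [125I]-Urotensin II, diluted to 5× final concentration in binding buffer, started binding. Plates were sealed with TopSeal-A and incubated 1 hour at room temperature in the dark. Wells were counted for 30 seconds each on a TopCount after a 60-second delay, and percentage inhibition was calculated.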

T5 sequence (P33032 whole entry): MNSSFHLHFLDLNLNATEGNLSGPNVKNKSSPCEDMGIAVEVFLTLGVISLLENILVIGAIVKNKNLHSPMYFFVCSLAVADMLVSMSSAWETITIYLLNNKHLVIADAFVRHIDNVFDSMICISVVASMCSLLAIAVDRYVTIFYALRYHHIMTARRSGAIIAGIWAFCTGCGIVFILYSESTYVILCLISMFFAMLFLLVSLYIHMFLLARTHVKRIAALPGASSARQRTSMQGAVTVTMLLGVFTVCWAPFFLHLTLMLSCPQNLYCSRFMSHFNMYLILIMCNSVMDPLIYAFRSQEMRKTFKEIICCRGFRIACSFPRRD
T8 sequence (P25103 whole entry): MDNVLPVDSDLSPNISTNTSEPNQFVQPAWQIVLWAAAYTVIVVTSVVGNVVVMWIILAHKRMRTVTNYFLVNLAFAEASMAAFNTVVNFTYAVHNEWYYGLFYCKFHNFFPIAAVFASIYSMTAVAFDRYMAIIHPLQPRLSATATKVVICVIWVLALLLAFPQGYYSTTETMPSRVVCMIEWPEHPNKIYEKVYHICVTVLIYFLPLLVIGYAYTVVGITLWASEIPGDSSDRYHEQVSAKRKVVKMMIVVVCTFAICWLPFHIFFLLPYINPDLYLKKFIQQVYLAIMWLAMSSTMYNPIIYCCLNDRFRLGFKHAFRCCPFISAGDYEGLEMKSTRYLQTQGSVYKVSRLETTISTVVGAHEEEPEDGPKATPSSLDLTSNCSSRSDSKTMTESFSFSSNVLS
T2 sequence (P41145 whole entry): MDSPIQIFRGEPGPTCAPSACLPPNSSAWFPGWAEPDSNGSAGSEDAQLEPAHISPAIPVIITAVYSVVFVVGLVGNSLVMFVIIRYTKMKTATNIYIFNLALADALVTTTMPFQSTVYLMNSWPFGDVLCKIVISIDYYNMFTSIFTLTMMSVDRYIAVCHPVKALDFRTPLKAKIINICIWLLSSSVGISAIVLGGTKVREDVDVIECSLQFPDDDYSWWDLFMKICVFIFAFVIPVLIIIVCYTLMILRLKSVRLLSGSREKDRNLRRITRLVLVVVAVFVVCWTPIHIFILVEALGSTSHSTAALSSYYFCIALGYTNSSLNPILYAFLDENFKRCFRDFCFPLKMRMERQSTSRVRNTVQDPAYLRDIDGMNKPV
T1 sequence (P41143 whole entry): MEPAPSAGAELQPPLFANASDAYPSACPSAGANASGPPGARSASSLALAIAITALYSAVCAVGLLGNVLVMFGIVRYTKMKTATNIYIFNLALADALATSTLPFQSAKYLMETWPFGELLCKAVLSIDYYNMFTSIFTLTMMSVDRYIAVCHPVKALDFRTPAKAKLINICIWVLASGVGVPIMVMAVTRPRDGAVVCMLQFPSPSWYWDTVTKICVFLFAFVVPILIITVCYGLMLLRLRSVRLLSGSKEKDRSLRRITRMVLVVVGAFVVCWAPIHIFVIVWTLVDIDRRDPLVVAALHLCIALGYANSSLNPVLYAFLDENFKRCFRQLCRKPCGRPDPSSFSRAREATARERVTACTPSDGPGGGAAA
T6 sequence (Q99705 whole entry): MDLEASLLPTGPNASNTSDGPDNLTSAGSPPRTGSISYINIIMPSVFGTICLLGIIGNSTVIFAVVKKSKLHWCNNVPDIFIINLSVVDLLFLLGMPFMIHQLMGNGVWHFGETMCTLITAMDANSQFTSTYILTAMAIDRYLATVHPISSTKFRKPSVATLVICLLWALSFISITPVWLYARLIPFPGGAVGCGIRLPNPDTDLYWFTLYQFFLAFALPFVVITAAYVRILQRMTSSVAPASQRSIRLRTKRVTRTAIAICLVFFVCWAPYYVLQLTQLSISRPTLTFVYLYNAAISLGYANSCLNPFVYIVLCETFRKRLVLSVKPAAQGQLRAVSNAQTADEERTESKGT
T3 sequence (P41968 whole entry): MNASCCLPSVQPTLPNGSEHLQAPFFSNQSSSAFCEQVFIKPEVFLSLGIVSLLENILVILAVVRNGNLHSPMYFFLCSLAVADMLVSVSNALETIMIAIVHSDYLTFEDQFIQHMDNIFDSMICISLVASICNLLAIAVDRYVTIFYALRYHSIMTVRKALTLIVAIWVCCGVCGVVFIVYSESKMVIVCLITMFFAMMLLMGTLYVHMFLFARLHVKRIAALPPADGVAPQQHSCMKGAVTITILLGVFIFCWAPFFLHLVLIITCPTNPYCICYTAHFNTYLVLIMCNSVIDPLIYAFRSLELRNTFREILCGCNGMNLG
T10 sequence (P41146 whole entry): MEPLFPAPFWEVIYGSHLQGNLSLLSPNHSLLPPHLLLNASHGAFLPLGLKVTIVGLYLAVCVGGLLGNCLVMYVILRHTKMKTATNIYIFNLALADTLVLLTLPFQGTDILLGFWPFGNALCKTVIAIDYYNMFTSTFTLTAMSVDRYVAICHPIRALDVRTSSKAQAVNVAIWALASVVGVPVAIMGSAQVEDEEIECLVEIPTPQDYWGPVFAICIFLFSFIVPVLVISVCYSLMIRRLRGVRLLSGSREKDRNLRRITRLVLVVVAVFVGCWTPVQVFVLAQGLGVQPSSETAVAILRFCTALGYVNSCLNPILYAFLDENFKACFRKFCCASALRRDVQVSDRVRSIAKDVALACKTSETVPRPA
T4 sequence (P32245 whole entry): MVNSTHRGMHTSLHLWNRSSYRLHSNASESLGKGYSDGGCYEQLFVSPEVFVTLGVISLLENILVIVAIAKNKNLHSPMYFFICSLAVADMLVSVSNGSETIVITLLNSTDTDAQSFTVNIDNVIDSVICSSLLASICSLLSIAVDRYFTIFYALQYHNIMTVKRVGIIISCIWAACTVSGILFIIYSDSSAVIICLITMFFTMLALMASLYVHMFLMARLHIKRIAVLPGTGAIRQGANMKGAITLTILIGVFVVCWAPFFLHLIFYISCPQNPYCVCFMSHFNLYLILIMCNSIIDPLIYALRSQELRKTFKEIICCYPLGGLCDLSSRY
T7 sequence (P35372 whole entry): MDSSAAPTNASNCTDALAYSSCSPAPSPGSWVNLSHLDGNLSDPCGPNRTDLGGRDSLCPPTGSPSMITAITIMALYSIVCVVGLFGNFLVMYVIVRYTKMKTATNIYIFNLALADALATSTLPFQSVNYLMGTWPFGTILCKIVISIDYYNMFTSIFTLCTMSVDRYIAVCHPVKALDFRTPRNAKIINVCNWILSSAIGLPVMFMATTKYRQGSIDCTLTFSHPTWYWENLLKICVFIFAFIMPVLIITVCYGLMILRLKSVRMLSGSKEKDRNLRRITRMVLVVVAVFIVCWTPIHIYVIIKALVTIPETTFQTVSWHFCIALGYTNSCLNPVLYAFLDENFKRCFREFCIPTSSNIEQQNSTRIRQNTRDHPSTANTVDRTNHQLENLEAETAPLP

SMILES: COC[C@H]1OC(OCc2ccc3ccccc3c2)[C@H](NC(=O)CCNC(=N)N)[C@@H](OCc2ccccc2)[C@@H]1O (stereo partly drawn) [compound 19]
- A1 radioligand binding inhibition (Human δ-opioid (DOP); human δ-opioid (DOP) membranes): − (“−” indicates less than 50% inhibition at 10 μM)
- A2 radioligand binding inhibition (Human κ-Opioid (KOP); human κ-opioid (KOP) membranes): − (“−” indicates less than 50% inhibition at 10 μM)
- A3 radioligand binding inhibition (Human Melanocortin (MC3); human melanocortin MC3 membranes): − (“−” indicates less than 50% inhibition at 10 μM)
- A4 radioligand binding inhibition (Human Melanocortin (MC4); human melanocortin MC4 membranes): − (“−” indicates less than 50% inhibition at 10 μM)
- A5 radioligand binding inhibition (Human melanocortin (MC5); human melanocortin MC5 membranes): − (“−” indicates less than 50% inhibition at 10 μM)
- A6 radioligand binding inhibition ([1]; human MCH1 membranes): − (“−” indicates less than 50% inhibition at 10 μM)
- A7 radioligand binding inhibition (Human μ-opioid (MOP); human μ-opioid (MOP) membranes): + (“+” indicates greater than 50% inhibition at 10 μM)
- A8 radioligand binding inhibition (Human neurokinin (NK1); human neurokinin NK1 membranes): + (“+” indicates greater than 50% inhibition at 10 μM)
- A9 radioligand binding inhibition ([2]; human NPY-Y1 membranes): − (“−” indicates less than 50% inhibition at 10 μM)
- A10 radioligand binding inhibition (Human opioid (ORL1); human ORL1 membranes): − (“−” indicates less than 50% inhibition at 10 μM)
- A11 radioligand binding inhibition (Mouse urotensin (mUR2); mouse urotensin mUR2 membranes): − (“−” indicates less than 50% inhibition at 10 μM)

SMILES: COCC1OC(OCc2ccc3ccccc3c2)C(NC(=O)CCCNC(=N)N)C(OCc2ccc(Cl)cc2)C1O (stereo not drawn) [compound 240]
- A1: inhibition of radioligand binding (Human δ-opioid (DOP); [3H]-Bremazocine, FlashPlate): − (“−” indicates less than 50% inhibition at 10 μM)
- A2: inhibition of radioligand binding (Human κ-Opioid (KOP); [3H]-Diprenorphine, filtration): + (“+” indicates greater than 50% inhibition at 10 μM)
- A3: inhibition of radioligand binding (Human Melanocortin (MC3); [125I]-NDP-αMSH, FlashPlate): + (“+” indicates greater than 50% inhibition at 10 μM)
- A4: inhibition of radioligand binding (Human Melanocortin (MC4); [125I]-NDP-αMSH, FlashPlate): + (“+” indicates greater than 50% inhibition at 10 μM)
- A5: inhibition of radioligand binding (Human melanocortin (MC5); [125I]-NDP-αMSH, FlashPlate): + (“+” indicates greater than 50% inhibition at 10 μM)
- A6: inhibition of radioligand binding ([1]; [125I]-S36057, FlashPlate): + (“+” indicates greater than 50% inhibition at 10 μM)
- A7: inhibition of radioligand binding (Human μ-opioid (MOP); [3H]-Naloxone, FlashPlate): + (“+” indicates greater than 50% inhibition at 10 μM)
- A8: inhibition of radioligand binding (Human neurokinin (NK1); [125I]-Substance P, filtration): + (“+” indicates greater than 50% inhibition at 10 μM)
- A9: inhibition of radioligand binding ([2]; [125I]-PYY, FlashPlate): − (“−” indicates less than 50% inhibition at 10 μM)
- A10: inhibition of radioligand binding (Human opioid (ORL1); [125I]-Nociceptin, FlashPlate): + (“+” indicates greater than 50% inhibition at 10 μM)
- A11: inhibition of radioligand binding (Mouse urotensin (mUR2); [125I]-Urotensin II, FlashPlate): − (“−” indicates less than 50% inhibition at 10 μM)

SMILES: CSC1O[C@H](COCc2ccc(-c3ccccc3)cc2)[C@@H](O)[C@@H](OCc2ccc(-c3ccccc3)cc2)[C@H]1NC(=O)CCNC(=N)N (stereo partly drawn) [compound 293]
- A1: inhibition of radioligand binding, human δ-opioid (DOP) (Human δ-opioid (DOP); [3H]-Bremazocine): − (“−” indicates less than 50% inhibition at 10 μM)
- A2: inhibition of radioligand binding, human κ-opioid (KOP) (Human κ-Opioid (KOP); [3H]-Diprenorphine): − (“−” indicates less than 50% inhibition at 10 μM)
- A3: inhibition of radioligand binding, human melanocortin (MC3) (Human Melanocortin (MC3); [125I]-NDP-αMSH): − (“−” indicates less than 50% inhibition at 10 μM)
- A4: inhibition of radioligand binding, human melanocortin (MC4) (Human Melanocortin (MC4); [125I]-NDP-αMSH): − (“−” indicates less than 50% inhibition at 10 μM)
- A5: inhibition of radioligand binding, human melanocortin (MC5) (Human melanocortin (MC5); [125I]-NDP-αMSH): − (“−” indicates less than 50% inhibition at 10 μM)
- A6: inhibition of radioligand binding, human melanin-concentrating hormone (MCH1) ([1]; [125I]-S36057): − (“−” indicates less than 50% inhibition at 10 μM)
- A7: inhibition of radioligand binding, human μ-opioid (MOP) (Human μ-opioid (MOP); [3H]-Naloxone): − (“−” indicates less than 50% inhibition at 10 μM)
- A8: inhibition of radioligand binding, human neurokinin (NK1) (Human neurokinin (NK1); [125I]-Substance P): + (“+” indicates greater than 50% inhibition at 10 μM)
- A9: inhibition of radioligand binding, human neuropeptide Y (NPY-Y1) ([2]; [125I]-PYY): − (“−” indicates less than 50% inhibition at 10 μM)
- A10: inhibition of radioligand binding, human opioid (ORL1) (Human opioid (ORL1); [125I]-Nociceptin): − (“−” indicates less than 50% inhibition at 10 μM)
- A11: inhibition of radioligand binding, mouse urotensin (mUR2) (Mouse urotensin (mUR2); [125I]-Urotensin II): − (“−” indicates less than 50% inhibition at 10 μM)
